PubChem BioAssay (NCI)
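96-well plates; 48 h exposure; 5 concentrations. Endpoints by linear interpolation between flanking doses. Not reached: highest tested concentration assigned. Definition used: TGI = concentration required for complete inhibition of growth.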

Legend:
Test in all cases: inhibition of tumour cell growth, NCI panel, 48 h
A498 renal = tested on: A498 renal
A549 NSCLC = tested on: A549 NSCLC
EKVX NSCLC = tested on: EKVX NSCLC
HCC-2998 colon = tested on: HCC-2998 colon
HL-60(TB) leukemia = tested on: HL-60(TB) leukemia
KM12 colon = tested on: KM12 colon
NCI-H226 lung = tested on: NCI-H226 lung
NCI-H460 lung = tested on: NCI-H460 lung
NCI/ADR-RES ovarian = tested on: NCI/ADR-RES ovarian
OVCAR-5 ovarian = tested on: OVCAR-5 ovarian
OVCAR-8 ovarian = tested on: OVCAR-8 ovarian
UO-31 renal = tested on: UO-31 renal

`Cc1ccc([N+](=O)[O-])cc1S(=O)(=O)Nc1ccc(C2=NOC(c3ccccc3O)C2)cc1` (centres undefined) gave a TGI (A498 renal) of 32.6 µM, a TGI (A549 NSCLC) of 71.8 µM and a TGI (EKVX NSCLC) of over 100 µM. It also gave a TGI (HCC-2998 colon) of 24.8 µM, a TGI (HL-60(TB) leukemia) of 21.4 µM and a TGI (KM12 colon) of 38.2 µM. For the same molecule, the TGI (NCI-H226 lung) was over 100 µM, the TGI (NCI-H460 lung) was 25.3 µM and the TGI (NCI/ADR-RES ovarian) was 8.53 µM. The TGI (OVCAR-5 ovarian) was over 100 µM, the TGI (OVCAR-8 ovarian) was over 100 µM and the TGI (UO-31 renal) was 1.34 µM.

In the case of `CCO[C@]12CCC[C@H]1[C@@H]1C(=O)c3ccccc3C(=O)C1=C(C)O2`, the TGI (A498 renal) is reported as over 100 µM, the TGI (A549 NSCLC) is reported as over 100 µM and the TGI (EKVX NSCLC) is reported as over 100 µM. The TGI (HCC-2998 colon) was over 100 µM, the TGI (HL-60(TB) leukemia) was over 100 µM and the TGI (KM12 colon) was over 100 µM. For the same molecule, the TGI (NCI-H460 lung) was over 100 µM, the TGI (NCI/ADR-RES ovarian) was over 100 µM and the TGI (OVCAR-5 ovarian) was over 100 µM. The TGI (OVCAR-8 ovarian) was over 100 µM and the TGI (UO-31 renal) was over 100 µM.

`O=C(NC(Cc1ccc(I)cc1)C(=O)O)c1ccc(Cl)cc1` (centres undefined) gave a TGI (A498 renal) of over 100 µM, a TGI (A549 NSCLC) of over 100 µM and a TGI (EKVX NSCLC) of over 100 µM. It also gave a TGI (HCC-2998 colon) of over 100 µM, a TGI (HL-60(TB) leukemia) of over 100 µM and a TGI (KM12 colon) of over 100 µM. The TGI (NCI-H226 lung) was over 100 µM, the TGI (NCI-H460 lung) was over 100 µM and the TGI (NCI/ADR-RES ovarian) was over 100 µM. The TGI (OVCAR-5 ovarian) was over 100 µM, the TGI (OVCAR-8 ovarian) was over 100 µM and the TGI (UO-31 renal) was over 100 µM.

With `NCCNCCNc1ccc(NCCNCCN)c2c1C(=O)c1c(O)ccc(O)c1C2=O` the TGI (A498 renal) was over 100 µM, the TGI (A549 NSCLC) was over 100 µM and the TGI (EKVX NSCLC) was over 100 µM. It also gave a TGI (HCC-2998 colon) of over 100 µM, a TGI (KM12 colon) of over 100 µM and a TGI (NCI-H226 lung) of over 100 µM. It also gave a TGI (NCI-H460 lung) of over 100 µM, a TGI (NCI/ADR-RES ovarian) of over 100 µM and a TGI (OVCAR-5 ovarian) of over 100 µM. It also gave a TGI (OVCAR-8 ovarian) of over 100 µM and a TGI (UO-31 renal) of over 100 µM.

With `CNC(C)Cc1ccccc1OC` (centres undefined) the TGI (A498 renal) was over 100 µM, the TGI (A549 NSCLC) was over 100 µM and the TGI (EKVX NSCLC) was over 100 µM. For the same molecule, the TGI (HCC-2998 colon) was over 100 µM, the TGI (HL-60(TB) leukemia) was over 100 µM and the TGI (KM12 colon) was over 100 µM. For the same molecule, the TGI (NCI-H226 lung) was over 100 µM, the TGI (NCI-H460 lung) was over 100 µM and the TGI (OVCAR-5 ovarian) was over 100 µM. The TGI (OVCAR-8 ovarian) was over 100 µM and the TGI (UO-31 renal) was over 100 µM.

In the case of `c1c2c(cc3c1OCO3)-c1cc3ccc4c(c3c[n+]1CC2)OCO4`, the TGI (A498 renal) is reported as over 12.5 µM, the TGI (A549 NSCLC) is reported as over 12.5 µM and the TGI (EKVX NSCLC) is reported as over 12.5 µM. The TGI (HCC-2998 colon) was over 12.5 µM, the TGI (HL-60(TB) leukemia) was over 4.93 µM and the TGI (KM12 colon) was over 5.45 µM. For the same molecule, the TGI (NCI-H226 lung) was over 11.1 µM, the TGI (NCI-H460 lung) was 3.55 µM and the TGI (NCI/ADR-RES ovarian) was 1.28 µM. It also gave a TGI (OVCAR-5 ovarian) of over 12.5 µM, a TGI (OVCAR-8 ovarian) of 4.13 µM and a TGI (UO-31 renal) of over 12.5 µM.

In the case of `C[N+](C)(C)CCN[N+]1(C)CCCc2ccccc21` (centres undefined), the TGI (A498 renal) is reported as 35.1 µM, the TGI (A549 NSCLC) is reported as over 100 µM and the TGI (EKVX NSCLC) is reported as over 100 µM. For the same molecule, the TGI (HCC-2998 colon) was over 100 µM, the TGI (HL-60(TB) leukemia) was over 100 µM and the TGI (KM12 colon) was over 100 µM. For the same molecule, the TGI (NCI-H226 lung) was over 100 µM, the TGI (NCI-H460 lung) was over 100 µM and the TGI (NCI/ADR-RES ovarian) was over 100 µM. For the same molecule, the TGI (OVCAR-5 ovarian) was over 100 µM, the TGI (OVCAR-8 ovarian) was over 100 µM and the TGI (UO-31 renal) was over 100 µM.

`CC1CC(Br)C(=O)O1` (centres undefined) was tested, and the TGI (A498 renal) was over 100 µM, the TGI (A549 NSCLC) was over 100 µM and the TGI (EKVX NSCLC) was over 100 µM. It also gave a TGI (HCC-2998 colon) of over 100 µM, a TGI (HL-60(TB) leukemia) of over 100 µM and a TGI (KM12 colon) of over 100 µM. The TGI (NCI-H460 lung) was over 100 µM, the TGI (NCI/ADR-RES ovarian) was over 100 µM and the TGI (OVCAR-5 ovarian) was over 100 µM. It also gave a TGI (OVCAR-8 ovarian) of over 100 µM and a TGI (UO-31 renal) of over 100 µM.

Work on `COC(=O)/C=C1\CCCN1CCc1cc2c(cc1CC#N)OCO2` yielded a TGI (A498 renal) of 80.2 µM, a TGI (A549 NSCLC) of over 100 µM and a TGI (EKVX NSCLC) of over 100 µM. It also gave a TGI (HCC-2998 colon) of 93.7 µM, a TGI (HL-60(TB) leukemia) of over 100 µM and a TGI (KM12 colon) of over 100 µM. For the same molecule, the TGI (NCI-H226 lung) was over 100 µM, the TGI (NCI-H460 lung) was over 100 µM and the TGI (NCI/ADR-RES ovarian) was over 100 µM. The TGI (OVCAR-5 ovarian) was over 100 µM, the TGI (OVCAR-8 ovarian) was over 100 µM and the TGI (UO-31 renal) was over 100 µM.

In the case of `Oc1ccc(-c2nc3cc(F)ccc3s2)cc1`, the TGI (A549 NSCLC) is reported as 40.6 µM, the TGI (EKVX NSCLC) is reported as 38 µM and the TGI (HCC-2998 colon) is reported as 28.3 µM. For the same molecule, the TGI (HL-60(TB) leukemia) was over 100 µM, the TGI (KM12 colon) was 52.5 µM and the TGI (NCI-H226 lung) was 39.7 µM. It also gave a TGI (NCI-H460 lung) of 48.8 µM, a TGI (NCI/ADR-RES ovarian) of 42.4 µM and a TGI (OVCAR-5 ovarian) of 58.4 µM. It also gave a TGI (OVCAR-8 ovarian) of over 100 µM and a TGI (UO-31 renal) of 49.9 µM.

`O=C1OC2(OC2c2ccc(Cl)cc2)c2ccccc21` (centres undefined) was tested, and the TGI (A549 NSCLC) was over 100 µM, the TGI (EKVX NSCLC) was over 100 µM and the TGI (HCC-2998 colon) was over 100 µM. It also gave a TGI (HL-60(TB) leukemia) of over 100 µM, a TGI (KM12 colon) of over 100 µM and a TGI (NCI-H226 lung) of over 100 µM. It also gave a TGI (NCI-H460 lung) of over 100 µM, a TGI (OVCAR-5 ovarian) of over 100 µM and a TGI (OVCAR-8 ovarian) of over 100 µM. The TGI (UO-31 renal) was over 100 µM.

Molecule `CO/N=C(\C)c1cccc(Nc2nc3ccccc3c3occc23)c1` has a TGI (A498 renal) of 17.3 µM, a TGI (A549 NSCLC) of 30 µM and a TGI (EKVX NSCLC) of 26.8 µM. It also gave a TGI (HCC-2998 colon) of 28.8 µM, a TGI (HL-60(TB) leukemia) of 59.5 µM and a TGI (KM12 colon) of 24.5 µM. It also gave a TGI (NCI-H226 lung) of 7.38 µM, a TGI (NCI-H460 lung) of 29.6 µM and a TGI (NCI/ADR-RES ovarian) of 30.7 µM. The TGI (OVCAR-5 ovarian) was 27.6 µM and the TGI (OVCAR-8 ovarian) was 33.4 µM.

With `CN(C)c1ccc(/C=c2/c3ccccc3n3c2cc(NC(=O)NCCC[N+](C)(C)C)[n+]3C)cc1` the TGI (A498 renal) was over 100 µM, the TGI (A549 NSCLC) was over 100 µM and the TGI (EKVX NSCLC) was over 100 µM. It also gave a TGI (HL-60(TB) leukemia) of over 100 µM, a TGI (KM12 colon) of over 100 µM and a TGI (NCI-H460 lung) of over 100 µM. For the same molecule, the TGI (NCI/ADR-RES ovarian) was over 100 µM, the TGI (OVCAR-5 ovarian) was over 100 µM and the TGI (OVCAR-8 ovarian) was over 100 µM. For the same molecule, the TGI (UO-31 renal) was over 100 µM.

For `CS(=O)(=O)OCCN(CCOS(C)(=O)=O)c1ccc(/C=N/Nc2ncnc3nc[nH]c23)cc1`, the TGI (A498 renal) was 60.6 µM, the TGI (A549 NSCLC) was 96.6 µM and the TGI (EKVX NSCLC) was 78.4 µM. For the same molecule, the TGI (HCC-2998 colon) was 39.5 µM, the TGI (HL-60(TB) leukemia) was 27.1 µM and the TGI (KM12 colon) was 34.8 µM. For the same molecule, the TGI (NCI-H226 lung) was 51.7 µM, the TGI (NCI-H460 lung) was 34.3 µM and the TGI (OVCAR-5 ovarian) was 51.4 µM. The TGI (OVCAR-8 ovarian) was 57.7 µM and the TGI (UO-31 renal) was 92 µM.

In the case of `O=C(CSc1nc2ccc(I)cc2c(=O)n1Cc1ccccc1)NN1C(=O)c2ccccc2C1=O`, the TGI (A498 renal) is reported as 35.7 µM, the TGI (A549 NSCLC) is reported as 72.5 µM and the TGI (EKVX NSCLC) is reported as 42.2 µM. The TGI (HCC-2998 colon) was over 100 µM, the TGI (HL-60(TB) leukemia) was 33.5 µM and the TGI (KM12 colon) was over 100 µM. It also gave a TGI (NCI-H226 lung) of 23.5 µM, a TGI (NCI-H460 lung) of over 100 µM and a TGI (NCI/ADR-RES ovarian) of 42.8 µM. The TGI (OVCAR-5 ovarian) was 86.7 µM, the TGI (OVCAR-8 ovarian) was 34.1 µM and the TGI (UO-31 renal) was 6.14 µM.
